Experiments:
[1] = system: E. coli; assay: FLIM-phasors of E. coli exposed to ampicillin (preliminary data, FIG. 13); format: cell-based
Text: The process of antibiotic susceptibility testing involves: isolation of bacteria from patient samples, immobilization of bacteria on agarose pads that contain different antibiotics supplied above the accepted minimum inhibitory concentration from the major classes commonly used in clinical settings including amoxicillin (penicillin-type), cephalexin (cephalosporin), erythromycin (macrolide), ciprofloxacin (fluoroquinolone), trimethoprim (sulfonamide), tetracycline, and gentamicin (aminoglycoside), imaging using the FLIM-AST device immediately and at 15-minute intervals for 2 hours to assess metabolic kinetics in response to antibiotics (FIG. 12).
The antibiotic susceptibility determination is performed by comparing FLIM-phasor profiles during the 2-hour incubation using software.
The FLIM microscope uses an 80 MHz ultrafast Ti:Sapphire Mai Tai laser (Spectra-physics, Santa Clara, Calif.) set at 740 nm for excitation. […] An H7422P-40 photomultiplier tube module (Hamamatsu, Bridgewater, N.J.) and A320 FastFLIM Box (ISS, Champaign, Ill.) were used to measure fluorescence lifetime. Image acquisition was controlled by SimFCS software (Laboratory for Fluorescence Dynamics, Irvine, Calif.).

[2] = system: surface-attached P. aeruginosa; assay: Image-based virulence (host killing) assay with amoeba host cells and calcein-AM; format: cell-based, Pseudomonas aeruginosa
Experimental: P. aeruginosa cells were assayed using an image-based virulence assay as described previously (12, 50). P. aeruginosa strains were cultured in PS:DB, diluted 1:100 into 60×15 mm plastic petri dishes (Corning, Corning, N.Y.), cultured for 4 to 6 hours by shaking at 100 rpm, and harvested. Planktonic cells were assayed by transferring 10 μL of culture from the petri dish to a new petri dish, mixing with an equal volume of D. discoideum that were grown to an OD600 of 0.2-0.5, and immobilizing by placing an agar pad on top of the mixture (FIG. 11C). Agar pads were made using Bacto agar at a concentration of 1%, DB buffer, and 1 μM calcein acetoxymethyl (AM) ester (Molecular Probes, Eugene, Oreg.), and were cut into 1.5×1.5 cm squares (12, 50). Surface-attached cells were assayed by aspirating planktonic cells from the culture, washing with DB buffer to remove planktonic cells, mixing with an equal volume of D. discoideum, and immobilizing by placing an agar pad on top of the mixture (FIG. 11C) (50). The immobilized planktonic or surface-attached P. aeruginosa and D. discoideum were incubated at room temperature for 1 hour and imaged using fluorescence microscopy. The host killing index (12, 50) was computed as the average ratio of calcein-AM fluorescence to cell area in individual amoeba cells for 30 to 200 cells in each experiment.
Fluorescence microscopy to assess calcein-AM fluorescence was performed using a Nikon Eclipse Ti-E microscope (Nikon, Melville, N.Y.) containing Nikon 10× Plan Fluor Ph1 (0.3 NA) and 20×S Plan Fluor Nikon (0.45 NA) objectives, a Sola light engine (Lumencor, Beaverton, Oreg.), an LED-DA/FI/TX filter set (Semrock, Rochester, N.Y.) containing a 409/493/596 dichroic and 474/27 nm and 525/45 nm filters for excitation and emission, respectively, and a Hamamatsu Orca Flash 4.0 V2 camera (Hamamatsu, Bridgewater, N.J.). Images were acquired using Nikon NIS-Elements and analyzed using custom built software written previously (12) in Matlab (Mathworks, Natick, Mass.).
For experiments in which strains cultured in PS:DB were supplemented with individual carbon sources (FIG. 5A-D), pyruvic acid, citric acid, […], glycerol, or glucose was added to cultures at a final concentration of 0.2% at 3 hours following a 1:100 dilution from an overnight culture. Cultures were harvested after 1 additional hour of growth for measurements of fluorescence lifetime and NADH and NAD^+ concentrations. For experiments in which surface-attached strains that were cultured in PS:DB media were treated with antimycin A (FIG. 5E-F), 10 μM antimycin A dissolved in 0.1% ethanol, 0.1% ethanol, alone, or 10 μM antimycin A dissolved in 0.1% ethanol and 0.2% citric acid were added after 3 hours of growth following a 1:100 dilution from an overnight culture. Host killing was measured after an additional 1 to 3 hours of growth (total of 4 to 6 hours of growth).

[3] = system: E. coli; assay: FLIM-AST (FAST) antibiotic susceptibility, g value and residual ratio (RR); format: cell-based; conditions: tetracycline-sensitive vs tetracycline-resistant strain, 1 hour
Text: We performed FLIM measurements using our FLIM AST (FAST) device of antibiotic-sensitive and antibiotic-resistant E. coli lab strains MG1655 and MC4100, P. aeruginosa strain PA14, and S. aureus strain RN4220 using a broad range of commonly-used antibiotics including tetracycline, ampicillin, carbenicillin, chloramphenicol, spectinomycin, gentamycin, and kanamycin and using a range of concentrations for each drug. For each antibiotic and strain combination, the minimum inhibitory concentration for each antibiotic was determined through measurements of optical densities of cultures. We treated bacterial strains using a range of concentrations starting from below-MIC to above-MIC concentrations for 1 hour.
We computed g values using the FLIM phasor method. Consistent with our predictions, we observed a significant change in g value following treatment by many antibiotics.
To determine a quantitative assessment of resistance, we computed a metric for the degree of antibiotic susceptibility for a given bacterial strain. Our experiments determined that the residual ratio (RR) number was a good indicator of antibiotic resistance:
where the g value is obtained using the phasor method to fluorescence lifetime imaging microscopy (FLIM) and t0 and t1 are the measurement times at the beginning of the measurement or at the end of the experiment, respectively. […]

[4] = system: P. aeruginosa; assay: Fluorescence lifetime imaging microscopy (FLIM) phasor g-values of P. aeruginosa; format: cell-based, Pseudomonas aeruginosa; conditions: planktonic wild-type, 0.2% citrate as sole carbon source, 10 μM antimycin A in 0.1% ethanol vs 0.1% ethanol
Experimental: Fluorescence lifetime measurements were performed using a custom-built multiphoton microscope setup based on an Olympus FV1000 system and an Olympus IX81 microscope (Olympus, Waltham, Mass.) as described previously (68). The FLIM microscope uses an 80 MHz ultrafast Ti:Sapphire Mai Tai laser (Spectra-physics, Santa Clara, Calif.) set at 740 nm for mulitphoton excitation. The setup used a 690-nm SP dichroic-460/80 nm filter pair for separating emission and a PlanApo N Olympus oil immersion 60× (1.42 NA) objective (Olympus, Waltham, Mass.), which is capable of bacterial single-cell resolution imaging. An H7422P-40 photomultiplier tube module (Hamamatsu, Bridgewater, N.J.) and A320 FastFLIM Box (ISS, Champaign, Ill.) were used to measure fluorescence lifetime. Image acquisition was controlled by SimFCS software version 4 (64-bit) (Laboratory for Fluorescence Dynamics, Irvine, Calif.). Planktonic and surface-attached cells were isolated by modifying a protocol described previously (12, 50) (FIG. 11A).
Masks for bacterial cells were created through SimFCS using fluorescence intensity images and image intensity thresholding (FIG. 11B). Fluorescence lifetimes within the masked areas were transformed using
The microscope was calibrated before each session by setting the fluorescence lifetime obtained for 10 μM rhodamine 110 (Sigma, St. Louis, Mo.) to 4.0 ns. The laser power was set to 20% (<3 mW at back aperture of the microscope) using an acousto-optic modulator (AA Opto Electronic, Orsay, France). Sub-cellular fluorescence lifetimes (FIG. 1A) were collected using the 20× digital zoom mode at a rate of 1.7 sec/frame. All other P. aeruginosa measurements were performed using the 6× digital zoom mode using the same frame rate. For all measurements, 40 sequential frames were acquired to generate a single FLIM image.
P. aeruginosa strains were cultured overnight in PS:DB, diluted 1:100 into 35 mm glass-bottom dishes (MatTek Corporation, Ashland, Mass.) containing the same medium, and cultured for 4 to 6 hours (FIGS. 2E-F, 4A, 5A, and 8C). Alternatively, strains were cultured overnight in minimal medium A, diluted 1:100 into modified minimal media A with single carbon sources in culture tubes (FIGS. 6D-E and 7A-B, D) or glass-bottom dishes and cultured to an OD600 of 0.2 (FIG. 2E-F).
Planktonic cells were transferred to a new glass-bottom dish, immobilized using an agar pad, and imaged immediately (FIG. 11A). Agar pads were made using 1% Bacto agar (BD, Franklin Lakes, N.J.) and DB buffer (1, 2) or modified minimal medium A containing no carbon source for strains that were cultured in PS:DB or modified minimal medium, respectively, and were cut into 1.5×1.5 cm squares. Surface-attached cells were isolated by aspirating the supernatant from the dish, washing the dish to remove planktonic cells with DB buffer or modified minimal medium with no carbon source for strains cultured in PS:DB or modified minimal medium, respectively, and placing an agar pad on the dish surface, and were imaged immediately. Imaging was performed at room temperature.
For experiments involving FLIM measurements of the effects of antimycin A (FIG. 7D), P. aeruginosa were grown in culture tubes to saturation in modified minimal medium A containing 0.2% citrate, diluted 1:100 into the same medium in culture tubes, supplemented with 10 μM antimycin A (Sigma, St. Louis, Mo.) with 0.1% ethanol or with 0.1% ethanol, cultured to an OD600 of 0.2, and immediately measured for fluorescence lifetime. Fluorescence lifetimes for pyocyanin and pyoverdine (FIG. 7C) were measured using solutions of 6.2 mM pyocyanin (P0046, Sigma, St. Louis, Mo.) in DMSO and 5 mg/mL pyoverdine (P8124, Sigma, St. Louis, Mo.) in deionized water, respectively. For FIG. 6D, cells with fluorescence intensities below a value of 1.0, as reported by the SimFCS software, were excluded from the analysis. […]

CC1(C)S[C@@H]2[C@H](NC(=O)[C@H](N)c3ccccc3)C(=O)N2[C@H]1C(=O)O [ampicillin]
average values along the g-axis ([1]; E. coli exposed to ampicillin): vary with concentration
phasor profile after drug is removed ([1]; E. coli, after ampicillin is removed): recovers to smaller values of g

O=P(O)(O)O [phosphoric acid, reference compound]
host-killing activity (host killing index) ([2]; surface-attached wild-type P. aeruginosa in rich (PS:DB) medium, supplemented at 3 hours at 0.2%, assessed after 6 hours of growth, amoeba host cells): little impact on host-killing activity

CN(C)[C@@H]1C(O)=C(C(N)=O)C(=O)[C@@]2(O)C(O)=C3C(=O)c4c(O)cccc4[C@@](C)(O)[C@H]3C[C@@H]12 [tetracycline]
concentration at which the increase in RR value begins [3]: 50 µg/mL

antimycin A [reference compound]
virulence induced earlier than untreated cells ([2]; surface-attached P. aeruginosa, 10 μM antimycin A in 0.1% ethanol added at 3 hours, host killing at 4.5 to 6 hours): 30 min
shift in fluorescence lifetime g-value [4]: shift towards higher g-value

— patent US20220287995A1, “COMPOSITIONS AND METHODS FOR INHIBITING BACTERIAL VIRULENCE AND FLIM-BASED DEVICE AND METHOD FOR ANTIBIOTIC SUSCEPTIBILITY TESTING” (THE REGENTS OF THE UNIVERSITY OF CALIFORNIA, priority 2019, published 2022)
